PMC4657098, “A Review of the Updated Pharmacophore for the Alpha 5 GABA(A) Benzodiazepine Receptor Model” (International Journal of Medicinal Chemistry, 2015)

Legend:
α5β3γ2 GABAA receptor = target: T1, α5β3γ2 GABAA receptor (Homo sapiens, UniProt P18507+P31644); assay: Oocyte electrophysiology, α5β3γ2; format: cell-based
T1 construct: expressed in transfected cells; host or cells: Xenopus oocytes

[1] = test system: other receptors (PDSP panel); assay: Full PDSP panel receptor binding; conditions: NIMH PDSP, Case Western Reserve
5ht1a = target: T2, 5ht1a (Homo sapiens, UniProt P08908); assay: PDSP receptor binding, 5ht1a; conditions: PDSP primary screen at 10 µM
T2 construct: purchased NIMH PDSP (Psychoactive Drug Screening Program, Roth lab, Case Western Reserve)

5ht1b = target: T3, 5ht1b (Homo sapiens, UniProt P28222); assay: PDSP receptor binding, 5ht1b; conditions: PDSP primary screen at 10 µM
T3 construct: purchased NIMH PDSP (Psychoactive Drug Screening Program, Roth lab, Case Western Reserve)

5ht1d = target: T4, 5ht1d (Homo sapiens, UniProt P28221); assay: PDSP receptor binding, 5ht1d; conditions: PDSP primary screen at 10 µM
T4 construct: purchased NIMH PDSP (Psychoactive Drug Screening Program, Roth lab, Case Western Reserve)

5ht1e = target: T5, 5ht1e (Homo sapiens, UniProt P28566); assay: PDSP receptor binding, 5ht1e; conditions: PDSP primary screen at 10 µM
T5 construct: purchased NIMH PDSP (Psychoactive Drug Screening Program, Roth lab, Case Western Reserve)

5ht2a = target: T6, 5ht2a (Homo sapiens, UniProt P28223); assay: PDSP receptor binding, 5ht2a; conditions: PDSP primary screen at 10 µM
T6 construct: purchased NIMH PDSP (Psychoactive Drug Screening Program, Roth lab, Case Western Reserve)

5ht2b = target: T7, 5ht2b (Homo sapiens, UniProt P41595); assay: PDSP receptor binding, 5ht2b; conditions: PDSP primary screen at 10 µM
T7 construct: purchased NIMH PDSP (Psychoactive Drug Screening Program, Roth lab, Case Western Reserve)

5ht2c = target: T8, 5ht2c (Homo sapiens, UniProt P28335); assay: PDSP receptor binding, 5ht2c; conditions: PDSP primary screen at 10 µM
T8 construct: purchased NIMH PDSP (Psychoactive Drug Screening Program, Roth lab, Case Western Reserve)

5ht3 = target: T9, 5ht3 (Homo sapiens, UniProt P46098); assay: PDSP receptor binding, 5ht3; conditions: PDSP primary screen at 10 µM
T9 construct: purchased NIMH PDSP (Psychoactive Drug Screening Program, Roth lab, Case Western Reserve)

5ht5a = target: T10, 5ht5a (Homo sapiens, UniProt P47898); assay: PDSP receptor binding, 5ht5a; conditions: PDSP primary screen at 10 µM
T10 construct: purchased NIMH PDSP (Psychoactive Drug Screening Program, Roth lab, Case Western Reserve)

5ht6 = target: T11, 5ht6 (Homo sapiens, UniProt P50406); assay: PDSP receptor binding, 5ht6; conditions: PDSP primary screen at 10 µM
T11 construct: purchased NIMH PDSP (Psychoactive Drug Screening Program, Roth lab, Case Western Reserve)

5ht7 = target: T12, 5ht7 (Homo sapiens, UniProt P34969); assay: PDSP receptor binding, 5ht7; conditions: PDSP primary screen at 10 µM
T12 construct: purchased NIMH PDSP (Psychoactive Drug Screening Program, Roth lab, Case Western Reserve)

α1A = target: T13, α1A (Homo sapiens, UniProt P35348); assay: PDSP receptor binding, α1A; conditions: PDSP primary screen at 10 µM
T13 construct: purchased NIMH PDSP (Psychoactive Drug Screening Program, Roth lab, Case Western Reserve)

[2] = PDSP receptor binding, β1B; conditions: PDSP primary screen at 10 µM
α2A = target: T14, α2A (Homo sapiens, UniProt P08913); assay: PDSP receptor binding, α2A; conditions: PDSP primary screen at 10 µM
T14 construct: purchased NIMH PDSP (Psychoactive Drug Screening Program, Roth lab, Case Western Reserve)

α2B = target: T15, α2B (Homo sapiens, UniProt P18089); assay: PDSP receptor binding, α2B; conditions: PDSP primary screen at 10 µM
T15 construct: purchased NIMH PDSP (Psychoactive Drug Screening Program, Roth lab, Case Western Reserve)

α2C = target: T16, α2C (Homo sapiens, UniProt P18825); assay: PDSP receptor binding, α2C; conditions: PDSP primary screen at 10 µM
T16 construct: purchased NIMH PDSP (Psychoactive Drug Screening Program, Roth lab, Case Western Reserve)

Beta1 = target: T17, Beta1 (Homo sapiens, UniProt P08588); assay: PDSP receptor binding, Beta1; conditions: PDSP primary screen at 10 µM
T17 construct: purchased NIMH PDSP (Psychoactive Drug Screening Program, Roth lab, Case Western Reserve)

Beta2 = target: T18, Beta2 (Homo sapiens, UniProt P07550); assay: PDSP receptor binding, Beta2; conditions: PDSP primary screen at 10 µM
T18 construct: purchased NIMH PDSP (Psychoactive Drug Screening Program, Roth lab, Case Western Reserve)

CB1 = target: T19, CB1 (Homo sapiens, UniProt P21554); assay: PDSP receptor binding, CB1; conditions: PDSP primary screen at 10 µM
T19 construct: purchased NIMH PDSP (Psychoactive Drug Screening Program, Roth lab, Case Western Reserve)

CB2 = target: T20, CB2 (Homo sapiens, UniProt P34972); assay: PDSP receptor binding, CB2; conditions: PDSP primary screen at 10 µM
T20 construct: purchased NIMH PDSP (Psychoactive Drug Screening Program, Roth lab, Case Western Reserve)

D1 = target: T21, D1 (Homo sapiens, UniProt P21728); assay: PDSP receptor binding, D1; conditions: PDSP primary screen at 10 µM
T21 construct: purchased NIMH PDSP (Psychoactive Drug Screening Program, Roth lab, Case Western Reserve)

D2 = target: T22, D2 (Homo sapiens, UniProt P14416); assay: PDSP receptor binding, D2; conditions: PDSP primary screen at 10 µM
T22 construct: purchased NIMH PDSP (Psychoactive Drug Screening Program, Roth lab, Case Western Reserve)

D3 = target: T23, D3 (Homo sapiens, UniProt P35462); assay: PDSP receptor binding, D3; conditions: PDSP primary screen at 10 µM
T23 construct: purchased NIMH PDSP (Psychoactive Drug Screening Program, Roth lab, Case Western Reserve)

D4 = target: T24, D4 (Homo sapiens, UniProt P21917); assay: PDSP receptor binding, D4; conditions: PDSP primary screen at 10 µM
T24 construct: purchased NIMH PDSP (Psychoactive Drug Screening Program, Roth lab, Case Western Reserve)

D5 = target: T25, D5 (Homo sapiens, UniProt P21918); assay: PDSP receptor binding, D5; conditions: PDSP primary screen at 10 µM
T25 construct: purchased NIMH PDSP (Psychoactive Drug Screening Program, Roth lab, Case Western Reserve)

T16 sequence (P18825 whole entry): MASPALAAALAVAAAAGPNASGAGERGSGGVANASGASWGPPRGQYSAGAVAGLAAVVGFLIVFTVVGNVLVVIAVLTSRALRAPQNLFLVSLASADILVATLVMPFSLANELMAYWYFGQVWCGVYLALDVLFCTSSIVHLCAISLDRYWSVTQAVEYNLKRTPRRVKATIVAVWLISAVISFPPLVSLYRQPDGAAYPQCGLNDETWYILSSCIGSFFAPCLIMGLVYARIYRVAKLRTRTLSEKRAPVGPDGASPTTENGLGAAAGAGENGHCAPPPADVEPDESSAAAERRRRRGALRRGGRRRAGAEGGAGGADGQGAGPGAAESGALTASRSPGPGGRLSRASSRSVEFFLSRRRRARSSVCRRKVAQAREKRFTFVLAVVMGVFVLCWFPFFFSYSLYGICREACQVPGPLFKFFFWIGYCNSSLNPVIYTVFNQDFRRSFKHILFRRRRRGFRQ
T8 sequence (P28335 33-458): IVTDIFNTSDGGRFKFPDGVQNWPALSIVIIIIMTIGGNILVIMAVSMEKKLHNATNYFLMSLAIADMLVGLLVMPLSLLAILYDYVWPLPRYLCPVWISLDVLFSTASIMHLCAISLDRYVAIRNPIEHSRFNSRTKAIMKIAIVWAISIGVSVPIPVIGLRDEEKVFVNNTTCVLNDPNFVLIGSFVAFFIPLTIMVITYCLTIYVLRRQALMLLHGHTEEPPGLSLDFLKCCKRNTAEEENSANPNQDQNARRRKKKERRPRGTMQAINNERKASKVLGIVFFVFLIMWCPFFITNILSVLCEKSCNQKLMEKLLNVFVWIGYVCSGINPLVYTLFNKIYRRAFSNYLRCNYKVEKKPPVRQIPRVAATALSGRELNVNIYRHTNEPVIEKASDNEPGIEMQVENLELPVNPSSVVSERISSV
T2 sequence (P08908 whole entry): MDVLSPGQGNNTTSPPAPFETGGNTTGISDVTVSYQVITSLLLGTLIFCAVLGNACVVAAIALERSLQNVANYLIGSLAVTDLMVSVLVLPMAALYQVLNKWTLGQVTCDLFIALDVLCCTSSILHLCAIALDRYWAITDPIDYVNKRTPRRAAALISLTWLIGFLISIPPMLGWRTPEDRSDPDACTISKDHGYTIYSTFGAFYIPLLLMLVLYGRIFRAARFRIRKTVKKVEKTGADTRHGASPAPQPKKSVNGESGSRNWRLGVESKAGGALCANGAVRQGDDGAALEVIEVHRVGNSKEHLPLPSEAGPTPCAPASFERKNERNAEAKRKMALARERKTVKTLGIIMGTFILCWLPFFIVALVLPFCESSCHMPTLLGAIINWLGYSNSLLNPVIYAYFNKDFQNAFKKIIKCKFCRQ
T7 sequence (P41595 whole entry): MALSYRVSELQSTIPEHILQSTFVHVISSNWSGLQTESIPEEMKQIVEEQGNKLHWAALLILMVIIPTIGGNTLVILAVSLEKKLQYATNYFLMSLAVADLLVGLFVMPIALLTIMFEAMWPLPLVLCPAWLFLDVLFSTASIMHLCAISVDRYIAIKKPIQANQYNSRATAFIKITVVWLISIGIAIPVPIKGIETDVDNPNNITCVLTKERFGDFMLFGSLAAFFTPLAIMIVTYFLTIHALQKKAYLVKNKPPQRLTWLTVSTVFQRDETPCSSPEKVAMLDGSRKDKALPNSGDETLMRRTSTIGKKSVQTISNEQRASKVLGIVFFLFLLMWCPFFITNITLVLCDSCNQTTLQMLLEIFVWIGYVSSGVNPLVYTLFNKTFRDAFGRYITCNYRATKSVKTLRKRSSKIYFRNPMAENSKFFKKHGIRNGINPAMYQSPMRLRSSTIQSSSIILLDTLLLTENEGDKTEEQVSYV
T5 sequence (P28566 whole entry): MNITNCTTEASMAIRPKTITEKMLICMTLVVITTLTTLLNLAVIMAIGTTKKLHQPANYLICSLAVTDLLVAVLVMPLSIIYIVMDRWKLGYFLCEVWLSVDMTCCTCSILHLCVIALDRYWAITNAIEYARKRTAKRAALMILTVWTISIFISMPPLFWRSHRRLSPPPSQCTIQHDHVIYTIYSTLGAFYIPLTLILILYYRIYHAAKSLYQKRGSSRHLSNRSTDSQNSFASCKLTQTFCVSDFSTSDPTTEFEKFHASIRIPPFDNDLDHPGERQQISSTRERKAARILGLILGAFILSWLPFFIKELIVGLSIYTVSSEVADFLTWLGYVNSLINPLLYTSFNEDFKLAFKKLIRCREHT
T24 sequence (P21917 whole entry): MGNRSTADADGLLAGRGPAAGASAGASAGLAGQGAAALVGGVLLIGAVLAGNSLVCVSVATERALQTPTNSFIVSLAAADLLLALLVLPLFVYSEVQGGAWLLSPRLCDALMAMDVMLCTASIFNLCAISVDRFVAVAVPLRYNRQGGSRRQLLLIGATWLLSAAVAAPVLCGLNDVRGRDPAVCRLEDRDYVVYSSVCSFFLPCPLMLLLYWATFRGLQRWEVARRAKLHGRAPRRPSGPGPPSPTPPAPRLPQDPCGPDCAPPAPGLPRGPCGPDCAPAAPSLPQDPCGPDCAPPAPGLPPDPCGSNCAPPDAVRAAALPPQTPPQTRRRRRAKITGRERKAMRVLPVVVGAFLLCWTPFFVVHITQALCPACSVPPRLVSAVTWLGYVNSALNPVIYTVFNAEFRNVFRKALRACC
T11 sequence (P50406 whole entry): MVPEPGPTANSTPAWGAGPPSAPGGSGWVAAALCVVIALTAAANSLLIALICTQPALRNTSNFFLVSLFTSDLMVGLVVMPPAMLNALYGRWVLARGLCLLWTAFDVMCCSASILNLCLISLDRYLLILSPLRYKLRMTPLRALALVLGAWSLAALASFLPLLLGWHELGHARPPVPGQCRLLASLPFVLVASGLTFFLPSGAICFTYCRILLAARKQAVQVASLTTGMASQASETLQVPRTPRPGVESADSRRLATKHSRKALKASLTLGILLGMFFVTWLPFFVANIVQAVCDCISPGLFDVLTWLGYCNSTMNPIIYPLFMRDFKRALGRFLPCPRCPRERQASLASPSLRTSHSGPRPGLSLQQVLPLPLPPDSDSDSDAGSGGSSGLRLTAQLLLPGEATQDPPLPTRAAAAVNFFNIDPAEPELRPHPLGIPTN
T17 sequence (P08588 whole entry): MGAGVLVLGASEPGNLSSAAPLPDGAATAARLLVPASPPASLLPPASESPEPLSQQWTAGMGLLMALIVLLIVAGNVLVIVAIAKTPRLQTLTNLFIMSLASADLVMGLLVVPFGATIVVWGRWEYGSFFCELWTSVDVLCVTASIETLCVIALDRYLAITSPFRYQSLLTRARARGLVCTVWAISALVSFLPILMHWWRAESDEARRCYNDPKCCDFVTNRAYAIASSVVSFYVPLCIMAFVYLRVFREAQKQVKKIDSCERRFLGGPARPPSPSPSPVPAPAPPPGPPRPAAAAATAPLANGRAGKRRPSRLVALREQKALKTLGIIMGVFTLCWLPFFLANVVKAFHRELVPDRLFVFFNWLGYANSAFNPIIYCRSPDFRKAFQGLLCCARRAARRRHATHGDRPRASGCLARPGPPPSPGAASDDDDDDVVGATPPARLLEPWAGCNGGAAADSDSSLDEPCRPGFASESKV
T20 sequence (P34972 whole entry): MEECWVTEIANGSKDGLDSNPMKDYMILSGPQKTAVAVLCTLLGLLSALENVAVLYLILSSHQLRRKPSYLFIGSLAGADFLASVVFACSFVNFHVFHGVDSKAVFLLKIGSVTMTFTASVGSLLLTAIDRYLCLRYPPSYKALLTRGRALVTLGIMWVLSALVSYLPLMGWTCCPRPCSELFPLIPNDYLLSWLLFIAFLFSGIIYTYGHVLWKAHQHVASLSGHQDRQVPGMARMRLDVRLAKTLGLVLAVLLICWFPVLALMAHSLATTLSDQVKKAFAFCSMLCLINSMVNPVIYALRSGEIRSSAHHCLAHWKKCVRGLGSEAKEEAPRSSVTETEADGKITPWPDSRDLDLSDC
T9 sequence (P46098 24-478): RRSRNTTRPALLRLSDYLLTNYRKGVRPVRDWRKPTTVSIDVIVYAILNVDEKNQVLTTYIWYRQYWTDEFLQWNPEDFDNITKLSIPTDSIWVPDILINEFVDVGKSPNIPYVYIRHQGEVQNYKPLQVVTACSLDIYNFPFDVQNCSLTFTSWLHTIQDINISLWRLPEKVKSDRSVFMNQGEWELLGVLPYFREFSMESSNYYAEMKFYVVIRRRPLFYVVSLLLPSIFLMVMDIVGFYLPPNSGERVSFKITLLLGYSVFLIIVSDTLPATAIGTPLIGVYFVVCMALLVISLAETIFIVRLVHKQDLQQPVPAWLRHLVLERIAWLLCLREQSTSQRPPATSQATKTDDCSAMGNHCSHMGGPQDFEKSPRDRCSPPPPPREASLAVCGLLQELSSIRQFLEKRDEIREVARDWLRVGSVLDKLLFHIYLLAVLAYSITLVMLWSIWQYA
T18 sequence (P07550 whole entry): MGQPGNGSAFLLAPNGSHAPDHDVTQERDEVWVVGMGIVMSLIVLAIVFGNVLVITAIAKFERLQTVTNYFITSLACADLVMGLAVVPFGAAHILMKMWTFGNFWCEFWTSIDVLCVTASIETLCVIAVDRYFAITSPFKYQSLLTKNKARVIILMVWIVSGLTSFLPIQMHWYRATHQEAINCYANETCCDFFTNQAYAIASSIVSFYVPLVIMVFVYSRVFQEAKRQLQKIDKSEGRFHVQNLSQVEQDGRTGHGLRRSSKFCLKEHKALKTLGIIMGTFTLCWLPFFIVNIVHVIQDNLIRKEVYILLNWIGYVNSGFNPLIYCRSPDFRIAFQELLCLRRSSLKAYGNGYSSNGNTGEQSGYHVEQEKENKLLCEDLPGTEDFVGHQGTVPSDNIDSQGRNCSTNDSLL

In the case of `CCc1ccc2c(c1)C(=O)N(C)Cc1c(C(=O)OCCCOC(=O)c3ncn4c3CN(C)C(=O)c3cc(CC)ccc3-4)ncn1-2` [XLi-356 (10), 1,3-Bis(8-ethyl-5,6-dihydro-5-methyl-6-oxo-4H-imidazo[1,5a][1,4]benzodiazepine-3-carboxy) propyl diester], the “efficacy type at the α5 subtype” value (α5β3γ2 GABAA receptor) is reported as “weak agonist-antagonist”, the “full panel receptor binding” value [1] is reported as “do not bind to other receptors at levels of concern” and the 5ht1a binding (5ht1a) is reported as “∗ (“∗” indicates “primary missed” (<50% inhibition at 10 µM))”. The 5ht1b binding (5ht1b) was “∗ (“∗” indicates “primary missed” (<50% inhibition at 10 µM))”, the 5ht1d binding (5ht1d) was “∗ (“∗” indicates “primary missed” (<50% inhibition at 10 µM))” and the 5ht1e binding (5ht1e) was “∗ (“∗” indicates “primary missed” (<50% inhibition at 10 µM))”. The 5ht2a binding (5ht2a) was “∗ (“∗” indicates “primary missed” (<50% inhibition at 10 µM))”, the 5ht2b binding (5ht2b) was “∗ (“∗” indicates “primary missed” (<50% inhibition at 10 µM))” and the 5ht2c binding (5ht2c) was “∗ (“∗” indicates “primary missed” (<50% inhibition at 10 µM))”. For the same compound, the 5ht3 binding (5ht3) was “∗ (“∗” indicates “primary missed” (<50% inhibition at 10 µM))”, the 5ht5a binding (5ht5a) was “∗ (“∗” indicates “primary missed” (<50% inhibition at 10 µM))” and the 5ht6 binding (5ht6) was “∗ (“∗” indicates “primary missed” (<50% inhibition at 10 µM))”. For the same compound, the 5ht7 binding (5ht7) was “∗ (“∗” indicates “primary missed” (<50% inhibition at 10 µM))”, the α1A binding (α1A) was “∗ (“∗” indicates “primary missed” (<50% inhibition at 10 µM))” and the β1B binding [2] was “∗ (“∗” indicates “primary missed” (<50% inhibition at 10 µM))”. For the same compound, the α2A binding (α2A) was “∗ (“∗” indicates “primary missed” (<50% inhibition at 10 µM))”, the α2B binding (α2B) was “∗ (“∗” indicates “primary missed” (<50% inhibition at 10 µM))” and the α2C binding (α2C) was “∗ (“∗” indicates “primary missed” (<50% inhibition at 10 µM))”. For the same compound, the Beta1 binding (Beta1) was “∗ (“∗” indicates “primary missed” (<50% inhibition at 10 µM))”, the Beta2 binding (Beta2) was “∗ (“∗” indicates “primary missed” (<50% inhibition at 10 µM))” and the CB1 binding (CB1) was “∗ (“∗” indicates “primary missed” (<50% inhibition at 10 µM))”. The CB2 binding (CB2) was “∗ (“∗” indicates “primary missed” (<50% inhibition at 10 µM))”, the D1 binding (D1) was “∗ (“∗” indicates “primary missed” (<50% inhibition at 10 µM))” and the D2 binding (D2) was “∗ (“∗” indicates “primary missed” (<50% inhibition at 10 µM))”. For the same compound, the D3 binding (D3) was “∗ (“∗” indicates “primary missed” (<50% inhibition at 10 µM))”, the D4 binding (D4) was “∗ (“∗” indicates “primary missed” (<50% inhibition at 10 µM))” and the D5 binding (D5) was “∗ (“∗” indicates “primary missed” (<50% inhibition at 10 µM))”.
